From article PMC10746112, “Synthesis and Pro-Apoptotic Effects of Nitrovinylanthracenes and Related Compounds in Chronic Lymphocytic Leukaemia (CLL) and Burkitt’s Lymphoma (BL)” (Molecules, 2023)
pIC50: −log10 of the molar value. “And” between values parts separate entries of the source, which are not always exact repeats. Identical values can stand only once.

Experiments:
PGA-1 CLL cell line = assay: alamarBlue cell viability assay; settings: 24 h; for % Viability PGA-1: 10 µM; for viability at 1 µM / viability at 10 µM: CLL cell; for viability at 1 µM: read-out: % Viability PGA-1, 1 µM, 24 h; for viability at 10 µM: read-out: % Viability PGA-1, 10 µM, 24 h
[1] = system: HeLa cervical cancer cells; assay: alamarBlue cell viability assay; settings: Homo sapiens, 24 h; for viability at 1 µM: read-out: % Viable Cells Remaining HeLa 24 h 1 µM; for viability at 10 µM: read-out: % Viable Cells Remaining HeLa 24 h 10 µM
[2] = system: MCF-7 human breast cancer cells; assay: alamarBlue cell viability assay; settings: MCF7, 72 h; for viability at 1 µM: read-out: % Viable Cells Remaining MCF-7 72 h 1 µM; for viability at 10 µM: read-out: % Viable Cells Remaining MCF-7 72 h 10 µM
[3] = system: HL-60 promyelocytic leukaemia cells; assay: alamarBlue cell viability assay; settings: Homo sapiens, HL-60, 24 h; for viability at 1 µM: read-out: % Viable Cells Remaining HL60 24 h 1 µM; for viability at 10 µM: read-out: % Viable Cells Remaining HL60 24 h 10 µM
[4] = system: MUTU-I Burkitt’s lymphoma cell line; settings: nitrostyrenes, 24 h, cited from earlier work
HG-3 CLL cell line = assay: alamarBlue cell viability assay; settings: 24 h; for viability at 10 µM: read-out: % Viability HG-3, 10 µM, 24 h
MUTU-1 cells = system: MUTU-1 cells; set-up: method as in earlier work; settings: nitrostyrenes and taxol, MTT assay, reported data; cited from earlier work
DG-75 cells = system: DG-75 cells; set-up: method as in earlier work; settings: nitrostyrenes and taxol, MTT assay, reported data; cited from earlier work
MUTU-I BL cells = assay: Annexin V/PI apoptotic assay (FACS); assay type: cell-based; settings: 10 µM, 24 h, total (early + late) apoptosis
Description: (§1) The chemotherapeutic drug taxol was used as a positive control. The pro-apoptotic effects of the selected nitrostyrene compounds 11g, 11h, 11i, 11j, 11k and 11l (10 μM) were determined using FITC (fluorescein isothiocyanate), Annexin V/PI (propidium iodide) staining and FACS (fluorescence-activated cell sorting) analysis to characterise the mode of cellular death induced by the synthesised compounds. Four populations were produced in this assay: Annexin-V- and PI-negative (Q4, healthy cells), Annexin-V-positive and PI-negative (Q3, early apoptosis), Annexin-V- and PI-positive (Q2, late apoptosis) and Annexin-V-negative and PI-positive (Q1, necrosis), which were easily identified and quantified. Apoptosis was assessed as % total apoptosis by a combination of early and late apoptosis (Q3 and Q2, respectively). […] The identification of compounds that can induce apoptosis in cancer cells is required in the development of potential lead structures for anticancer drugs.
(§2) The BL cells DG-75 and MUTU-I (750,000) were treated at 37 °C with either vehicle (0.1% (v/v) EtOH), […] taxol (10 μM) and incubated for 24 h (MUTU-1) or 48 h (DG-75). The CLL cells PGA1 and HG3 (1 × 10^6 cells/mL) were treated at 37 °C with either vehicle (1% (v/v) DMSO) or the nitrostyrene compounds 19a (10 μM, 5 μM and 1 μM) and 19g, 19i, 19l and 19m (10 μM and 1 μM) for 48 h. The cells were then harvested by centrifugation at 400× g in a temperature-controlled Sorvall centrifuge and rinsed with 0.5 mL of Ca^2+ Annexin-V-binding buffer (0.1 M HEPES, pH 7.4; 0.14 M NaCl; 25 mM CaCl2). The samples were resuspended in 50 µL FITC Annexin V (diluted 1:33 in Ca^2+ Annexin V-binding buffer), incubated on ice for 10 min (protected from light), washed with Annexin-V-binding buffer and re-suspended in 500 µL of propidium iodide (PI) solution (0.5 µg/mL). The samples were analysed within 1 h using a BD Accuri C6 flow cytometer counting 10,000 cells and analysed using the FlowJo software (FlowJo LLC, Ashland, OR, USA) package.

DG-75 BL cells = assay: Annexin V/PI apoptotic assay (FACS); assay type: cell-based; settings: 10 µM, 48 h, total (early + late) apoptosis
Description: as §1, §2

[5] = system: DG-75 Burkitt’s lymphoma cell line; settings: nitrostyrenes, 48 h, cited from earlier work
Ramos BL cell line = assay: alamarBlue cell viability assay; assay type: cell-based; settings: Homo sapiens, 24 h; for viability at 1 µM: read-out: % Viable Cells Remaining Ramos 24 h 1 µM; for viability at 10 µM: read-out: % Viable Cells Remaining Ramos 24 h 10 µM
Description: (§3) Cells were seeded at a density of 2.5 × 10^4 cells/well (MCF-7, MDA-MB-231 cells), 1 × 10^4 cells/well (HL-60 cells), 1–5 × 10^4 cells per well (BL MUTU-I, DG-75 cells) and 2 × 10^5 cells/well [HG-3, PGA-1 (CLL cells)], Ramos, BJAB (BL cells) (200 μL per well), in 96-well plates. Cells were treated with the desired drug concentration for the appropriate time for each cell type, and the samples were incubated as required. alamarBlue (20 μL) was then added to each well and the samples further incubated in the dark at 37 °C for 4 h. Wells containing only reagent and cell culture medium in the absence of cells were used as blank controls. Ethanol was used as a vehicle, and cells were treated with 1% ethanol (v/v) in all experiments. The 96-well plates were analysed on a fluorescence plate reader (SpectraMax Gemini, Molecular Devices) (emission and excitement wavelengths of 590 nm and 544 nm, respectively), and the fluorescence was recorded. The decrease in cell viability was then calculated with reference to the vehicle samples (100% viability). EMEM medium with the addition of alamarBlue was used as a blank. Vehicle-treated cells were considered to be 100% viable, and the viabilities of each compound was calculated accordingly. […] All biochemical assays were performed in triplicate on at least three independent occasions, and the mean values were determined.

Bjab BL cell line = assay: alamarBlue cell viability assay; assay type: cell-based; settings: Homo sapiens, 24 h; for viability at 1 µM: read-out: % Viable Cells Remaining Bjab 24 h 1 µM; for viability at 10 µM: read-out: % Viable Cells Remaining Bjab 24 h 10 µM
Description: as §3

[6] = system: DG-75 Burkitt’s lymphoma cell line; assay: alamarBlue cell viability assay; settings: Homo sapiens, DG-75, 48 h; for viability at 1 µM: read-out: % Viable Cells Remaining DG-75, 1 µM, 48 h; for viability at 10 µM: read-out: % Viable Cells Remaining DG-75, 10 µM, 48 h
[7] = system: MUTU-I Burkitt’s lymphoma cell line; assay: alamarBlue cell viability assay; settings: MUTU-I, 24 h; for viability at 1 µM: read-out: % Viable Cells Remaining MUTU-1, 1 µM, 24 h; for viability at 10 µM: read-out: % Viable Cells Remaining MUTU-1, 10 µM, 24 h
[8] = system: DG-75 Burkitt’s lymphoma cell line; settings: human, 48 h, 10 µM
[9] = system: MUTU-I Burkitt’s lymphoma cell line; settings: human, 24 h, 10 µM

Compound	viability at 1 µM [1]	viability at 10 µM [1]	viability at 1 µM [2]	viability at 10 µM [2]	viability at 1 µM [3]	viability at 10 µM [3]	% Viable Cells Remaining MUTU-1 24 h 1 µM [4]	% Viable Cells Remaining MUTU-1 24 h 10 µM [4]	pIC50 (MUTU-1 cells)	pIC50 (DG-75 cells)	MUTU-I Apoptosis (%) (MUTU-I BL cells)	DG-75 Apoptosis (%) (DG-75 BL cells)	% Viable Cells Remaining DG-75 48 h 1 µM [5]	% Viable Cells Remaining DG-75 48 h 10 µM [5]	viability at 1 µM [6]	viability at 10 µM [6]	viability at 1 µM [7]	viability at 10 µM [7]	% Viable Cells Remaining DG-75 [8]	% Viable Cells Remaining MUTU-1 [9]	also measured
CC/C(=C\c1ccccc1Cl)[N+](=O)[O-] [Compound 11j, (E)-1-Chloro-2-(2-nitrobut-1-en-1-yl)benzene]	95.3%	21.8%	98.1%	20.7%	99.8%	9.1%	64.31%	10.3% and 10.27%	5.66	5.69	88.3%	72.3%	79.77%	15.89%	–	–	–	–	–	–	% Viability PGA-1 (PGA-1 CLL cell line): 0.53%; viability at 1 µM (PGA-1 CLL cell line): 6.31%; viability at 10 µM (PGA-1 CLL cell line): 0.43%; viability at 10 µM (HG-3 CLL cell line; CLL cell): 5.61%; viability at 1 µM (Ramos BL cell line): 66.9%; viability at 10 µM (Ramos BL cell line): 4.4%; viability at 1 µM (Bjab BL cell line): 102%; viability at 10 µM (Bjab BL cell line): 68.9%
O=[N+]([O-])CCc1c2ccccc2cc2ccccc12 [Compound 22, 9-(2-Nitroethyl)Anthracene]	–	–	–	–	–	–	–	–	–	–	–	–	–	–	86.7%	> 85%	105%	> 85%	99.08%	100.6%	viability at 10 µM (PGA-1 CLL cell line): 75%; viability at 10 µM (HG-3 CLL cell line; CLL cell): 76%; melting point: 147 to 149 °C
Cc1[nH]nnc1-c1c2ccccc2cc2ccccc12 [Compound 30b, 4-(Anthracen-9-yl)-5-Methyl-1H-1,2,3-Triazole]	–	–	–	–	–	–	–	–	–	–	–	–	–	–	96.2%	> 90%	108%	> 90%	100.6%	107.3%	melting point: 231 to 232 °C
C/C(=C\c1ccccc1Cl)[N+](=O)[O-] [Compound 11g]	87.1%	34.2%	81.4%	41.7%	73.4%	16.5%	44.16%	14.91%	6.09	5.56	80.9%	70.6%	75.86%	−0.08%	–	–	–	–	–	–	viability at 1 µM (Ramos BL cell line): 53.4%; viability at 10 µM (Ramos BL cell line): 7.7%; viability at 1 µM (Bjab BL cell line): 82.2%; viability at 10 µM (Bjab BL cell line): 51.9%
C/C(=C\c1ccc(Cl)cc1)[N+](=O)[O-] [Compound 11i]	93%	17.7%	103%	37.1%	104%	6.5%	67.22%	10.53%	5.89	5.56	84.5%	86.4%	88.76%	0.72%	–	–	–	–	–	–	viability at 1 µM (Ramos BL cell line): 62.6%; viability at 10 µM (Ramos BL cell line): 13.9%; viability at 1 µM (Bjab BL cell line): 100%; viability at 10 µM (Bjab BL cell line): 50.8%
CC/C(=C\c1cccc(Cl)c1)[N+](=O)[O-] [Compound 11k]	–	–	–	–	–	–	–	2.39%	5.91	5.63	91.5%	90.7%	–	–	–	–	–	–	–	–	% Viability PGA-1 (PGA-1 CLL cell line): 4.34%; viability at 1 µM (PGA-1 CLL cell line): 3.26%; % Viability HG-3 (HG-3 CLL cell line; 10 µM): 0.11%; viability at 1 µM (HG-3 CLL cell line; CLL cell, read-out: % Viability HG-3, 1 µM, 24 h): 60.7%
CC(=CCc1c2ccccc2cc2ccccc12)[N+](=O)[O-] [Compound 20b, 9-(3-Nitrobut-2-en-1-yl)Anthracene]	–	–	–	–	–	–	–	–	–	–	–	–	–	–	95.4%	79 to 97%	105%	15 to 40%	97.63%	14.55%	–
c1ccc2c(-c3c[nH]nn3)c3ccccc3cc2c1 [Compound 30a, 4-(anthracen-9-yl)-1H-1,2,3-triazole]	–	–	–	–	–	–	–	–	–	–	–	–	–	–	104%	> 90%	94.9%	> 90%	94.86%	94.5%	–
c1ccc2c(C3CNN=N3)c3ccccc3cc2c1 (centres unmarked) [Compound 31, 4-(Anthracen-9-yl)-4,5-Dihydro-1H-1,2,3-Triazole]	–	–	–	–	–	–	–	–	–	–	–	–	–	–	96%	> 90%	96%	> 90%	103.1%	103.1%	melting point: 266 to 268 °C
CC/C(=C\c1ccc(Cl)cc1)[N+](=O)[O-] [Compound 11l]	–	–	–	–	–	–	–	2.61%	5.93	5.51	91.3%	85.0%	–	–	–	–	–	–	–	–	–
